The text below walks through data of patent US9497963B2, “Methods and compositions for control of gypsy moth, Lymantria dispar” (Simon Fraser University, priority 2008, dated 2016).

Parameters in all cases: species or system Lymantria dispar
For assay [1], the system named is male gypsy moth antenna response to mixed pheromone/modulator plume. Put plainly: EAG peak broadening (PB) (Example 11). The conditions noted are these: for activity (% peak broadening): mixed plume, 100 μg compound and 100 ng pheromone (puff v vs puff ii). The method, then: A mixed pheromone/modulator plume could elicit a prolonged response (FIG. 1A, puff v; FIG. 2), and this was termed peak broadening (PB). PB was calculated from the EAG traces as follows: PB=100×(Δtv−Δtii)/Δtii
Where Δt was the width of the EAG peak (in s) from the start of the depolarization to the return to background potential.

Assay [2] has as its system L. dispar PBP 2. Put plainly: Pheromone-binding protein (PBP) ligand binding assay, PBP2. In outline:
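L. dispar PBP1 or PBP2 equilibrated overnight in buffer with test compound or mini-library; free ligand removed by size-exclusion chromatography on P2 gel. Total and protein-bound ligand extracted and quantified by GC-MS per component; % bound = 100×[PBP·L]/[L]tot.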

Assay [3] has as its system male gypsy moth antenna response to pheromone (+)-1. Kind of assay: EAG short-term (STI) and long-term (LTI) inhibition of pheromone signaling (Example 5). As to conditions: for inhibition at 0.001 mg / inhibition at 0.01 mg / inhibition at 0.1 mg / inhibition at 100 µg, 0.1 mg: Lymantria dispar, mean ± S.E.; for inhibition at 0.001 mg: mixed plume (+)-1 100 ng + compound 1 μg; for inhibition at 0.001 mg / inhibition at 0.01 mg / inhibition at 0.1 mg: negative = enhancement, read-out: Activity (%): short-term inhibition (STI); for inhibition at 0.01 mg: mixed plume (+)-1 100 ng + compound 10 μg; for inhibition at 0.1 mg: mixed plume (+)-1 100 ng + compound 100 μg (puff v); for inhibition at 100 µg, 0.1 mg: pure (+)-1 100 ng plume following mixed plume with 100 μg compound, read-out: Activity (%): long-term inhibition (LTI). Summed up:
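Excised male gypsy moth antenna in saline pH 6.8 under purified air (300 mL/min); 0.3 s puffs: air, (+)-1 100 ng, (+)-1 plus compound 1, 10, 100 μg per cartridge, then (+)-1 alone. STI: mixed-puff air-corrected depolarization loss versus first pheromone puff; LTI: final pheromone-puff loss.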

Setting [4] is: member tested within library 3c{2, 1-5}.
The mark [5] stands for this setting: member tested within library 3c{3, 1-5}, Nd = not detected in GC-MS.
[6] abbreviates: tested as single compound, means ± S.E., 4 replicates.
[7] abbreviates: member tested within library 3c{1, 1-5}.

Molecules are shown by their SMILES. “Also recorded” adds a separate entry of the source. Read-outs that look alike come from different tables or passages of the source.

Turning to `CCCOc1ccc(OCC)cc1` [3c{2,3}, 1-ethoxy-4-propoxy benzene], the “activity (% peak broadening)” value in assay [1] is 94 ± 24%. For the same compound, the “PBP2 (% bound)” value in assay [2] (setting [4]) was 22 ± 0.3%. Besides, the “PBP2 (% bound)” value in assay [2] (setting [5]) is 6 ± 0.2%. In assay [3], the “long-term inhibition (LTI) activity (in words)” value was “strongest long-term inhibitor”; the inhibition (as a rule, the change of the read-out against control, counted positive when it falls) at 0.001 mg came out at 8 ± 20%; the inhibition at 0.01 mg is -30 ± 10%; the inhibition at 0.1 mg was -62 ± 50%. For the same compound, the inhibition at 100 µg, 0.1 mg in assay [3] stood at 58 ± 7%. The “long-term inhibition (LTI) activity (in words)” value in assay [3] (listed as 3c{2, 3}) is “most active”.
As for `CC(C)CCOc1ccc(OCCC(C)C)cc1` [3c{5,5}, 1,4-Di-(3-methyl-butyloxy) benzene], in assay [2] (member tested within library 3c{5, 1-5}), the “PBP2 (% bound)” value was 1 ± 0.1%. The “PBP2 (% bound)” value in assay [2] (setting [6]) was found to be 8 ± 0.2%. Besides, in assay [3], the inhibition at 0.001 mg amounted to 41 ± 14%; the inhibition at 0.01 mg was 4 ± 26%; the inhibition at 0.1 mg turned out to be 50 ± 9%; the inhibition at 100 µg, 0.1 mg was 7 ± 4%.
As to `CCCOc1ccc(OCCC)cc1` [3c{3,3}, 1,4-Dipropoxy benzene], the “PBP2 (% bound)” value in assay [2] (setting [5]) is listed as 3 ± 0.1%. Moreover, the “PBP2 (% bound)” value in assay [2] (setting [6]) worked out at 5 ± 0.2%. Also, in assay [3], the inhibition at 0.001 mg is -3 ± 13%; the inhibition at 0.01 mg is -60 ± 38%; the inhibition at 0.1 mg was -100 ± 40%; the inhibition at 100 µg, 0.1 mg worked out at 29 ± 13%.
For the compound `CCOc1ccc(OCC)cc1` [3c{2,2}, 1,4-Diethoxy benzene], the “activity (% peak broadening)” value in assay [1] was 71 ± 30%. The “PBP2 (% bound)” value in assay [2] (setting [4]) is 33 ± 0.6%. Moreover, the “PBP2 (% bound)” value in assay [2] (setting [6]) was 19 ± 0.2%. Besides, in assay [3], the inhibition at 0.001 mg turned out to be 7 ± 12%; the inhibition at 0.01 mg is -19 ± 8%; the inhibition at 0.1 mg was -27 ± 15%; the inhibition at 100 µg, 0.1 mg amounted to 17 ± 11%.
Regarding `CCCOc1ccc(OC)cc1` [3c{1,3}, 1-methoxy-4-propoxy-benzene], in assay [1] (1:1000 ratios), the “peak broadening / prolongation of the EAG signal (in words)” value is given as “significant prolongation of the EAG signal; also recorded: strongest peak broadening compound”. Besides, in assay [1], the “activity (% peak broadening)” value was 175 ± 23%. Also, the “PBP2 (% bound)” value in assay [2] (setting [7]) turned out to be 5 ± 2.1%. Also, the “PBP2 (% bound)” value in assay [2] (setting [5]) is listed as 7 ± 0.2%. For the same compound, in assay [3], the inhibition at 0.001 mg turned out to be 28 ± 16%; the inhibition at 0.01 mg is -2 ± 5%; the inhibition at 0.1 mg was 48 ± 14%; the inhibition at 100 µg, 0.1 mg stood at 39 ± 12%.
On to `COc1ccc(OC)cc1` [3c{1,1}, 1,4-Dimethoxy benzene], for which the “activity (% peak broadening)” value in assay [1] amounted to 77 ± 12%. The “PBP2 (% bound)” value in assay [2] (setting [7]) is 19 ± 0.9%. The “PBP2 (% bound)” value in assay [2] (setting [6]) was determined as 13 ± 2.1%. For the same compound, in assay [3], the inhibition at 0.001 mg amounted to 24 ± 8%; the inhibition at 0.01 mg was found to be 23 ± 9%; the inhibition at 0.1 mg amounted to 15 ± 25%; the inhibition at 100 µg, 0.1 mg was -7 ± 10%.
